Reference: patent publication US12077503B2, “Substituted cyclic amides and their use as herbicides” (FMC CORPORATION, priority 2015, dated 2024)

How the values were obtained:
Format in all cases: in vivo
[1] = tested on: Galium (catchweed bedstraw, Galium aparine); assay: Test C preemergence; settings: for Plant response rating, Galium: scale 0 to 100, 0 no effect, 100 complete control
Method in brief: (§1)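 Scores of 0 to 100 reflect visual comparison with control plants, where 0 means no effect and 100 complete control, made 13 to 15 d after treatment. Application was preemergence to seeds in loam-sand soil or postemergence to plants 2 to 18 cm tall in peat-based mix, using a surfactant-containing solvent formulation.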

[2] = tested on: barnyardgrass (Echinochloa crus-galli); assay: Test C preemergence; settings: for Plant response rating, Barnyardgrass: scale 0 to 100, 0 no effect, 100 complete control
Method in brief: as §1

[3] = tested on: blackgrass (Alopecurus myosuroides); assay: Test C preemergence; settings: for Plant response rating, Blackgrass: scale 0 to 100, 0 no effect, 100 complete control
Method in brief: as §1

corn (Zea mays) = assay: Test C preemergence; settings: for Plant response rating, Corn: scale 0 to 100, 0 no effect, 100 complete control
Method in brief: as §1

[4] = tested on: crabgrass, large (large crabgrass, Digitaria sanguinalis); assay: Test C preemergence; settings: for Plant response rating, Crabgrass, Large: scale 0 to 100, 0 no effect, 100 complete control
Method in brief: as §1

[5] = tested on: foxtail, giant (giant foxtail, Setaria faberii); assay: Test C preemergence; settings: for Plant response rating, Foxtail, Giant: scale 0 to 100, 0 no effect, 100 complete control
Method in brief: as §1

[6] = tested on: johnsongrass (Sorghum halepense); assay: Test C preemergence; settings: for Plant response rating, Johnsongrass: scale 0 to 100, 0 no effect, 100 complete control
Method in brief: as §1

[7] = tested on: lambsquarters (Chenopodium album); assay: Test C preemergence; settings: for Plant response rating, Lambsquarters: scale 0 to 100, 0 no effect, 100 complete control
Method in brief: as §1

[8] = tested on: morningglory (Ipomoea coccinea); assay: Test C preemergence; settings: for Plant response rating, Morningglory: scale 0 to 100, 0 no effect, 100 complete control
Method in brief: as §1

[9] = tested on: nutsedge, yellow (yellow nutsedge, Cyperus esculentus); assay: Test C preemergence; settings: for Plant response rating, Nutsedge, Yellow: scale 0 to 100, 0 no effect, 100 complete control
Method in brief: as §1

[10] = tested on: oilseed rape (Brassica napus); assay: Test C preemergence; settings: for Plant response rating, Oilseed Rape: scale 0 to 100, 0 no effect, 100 complete control
Method in brief: as §1

[11] = tested on: pigweed (Amaranthus retroflexus); assay: Test C preemergence; settings: for Plant response rating, Pigweed: scale 0 to 100, 0 no effect, 100 complete control
Method in brief: as §1

[12] = tested on: ragweed (common ragweed, Ambrosia elatior); assay: Test C preemergence; settings: for Plant response rating, Ragweed: scale 0 to 100, 0 no effect, 100 complete control
Method in brief: as §1

[13] = tested on: ryegrass, Italian (Italian ryegrass, Lolium multiflorum); assay: Test C preemergence; settings: for Plant response rating, Ryegrass, Italian: scale 0 to 100, 0 no effect, 100 complete control
Method in brief: as §1

[14] = tested on: velvetleaf (Abutilon theophrasti); assay: Test C preemergence; settings: for Plant response rating, Velvetleaf: scale 0 to 100, 0 no effect, 100 complete control
Method in brief: as §1

[15] = tested on: waterhemp (common waterhemp, Amaranthus rudis); assay: Test C preemergence; settings: for Plant response rating, Waterhemp: scale 0 to 100, 0 no effect, 100 complete control
Method in brief: as §1

[16] = tested on: wheat (winter wheat, Triticum aestivum); assay: Test C preemergence; settings: for Plant response rating, Wheat: scale 0 to 100, 0 no effect, 100 complete control
Method in brief: as §1

[17] = tested on: ducksalad (Heteranthera limosa); assay: Test C flooded paddy test; settings: Flood, 0 is no effect, 100 is complete control
Method in brief: (§2)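 Scores express visual response relative to untreated controls, 0 meaning no effect and 100 complete control, assessed 13 to 15 d after treatment in the greenhouse. Compound went into water flooded 3 cm above soil around 2-leaf plants.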

rice (Oryza sativa) = assay: Test C flooded paddy test; settings: Flood, 0 is no effect, 100 is complete control
Method in brief: as §2

[18] = 31 g ai/ha, 0 is no effect, 100 is complete control

## CN1CC(c2ccc(F)c(C(F)(F)F)c2)C(C(=O)Nc2cccc(F)c2F)C1=O (stereo not shown) [Compound 613]
[1]; [18]
  Plant response rating (scale of 0 to 100), Galium: 90
[1]; 62 g ai/ha
  Plant response rating, Galium: 90
[1]; 125 g ai/ha
  Plant response rating, Galium: 90
[1]; 250 g ai/ha
  Plant response rating, Galium: 90
[2]; [18]
  Plant response rating (scale of 0 to 100), Barnyardgrass: 90
[2]; 62 g ai/ha
  Plant response rating, Barnyardgrass: 95
[2]; 125 g ai/ha
  Plant response rating, Barnyardgrass: 95
[2]; 250 g ai/ha
  Plant response rating, Barnyardgrass: 98
[3]; [18]
  Plant response rating (scale of 0 to 100), Blackgrass: 85
[3]; 62 g ai/ha
  Plant response rating, Blackgrass: 85
[3]; 125 g ai/ha
  Plant response rating, Blackgrass: 95
[3]; 250 g ai/ha
  Plant response rating, Blackgrass: 95
Corn (Zea mays); [18]
  Plant response rating (scale of 0 to 100), Corn: 40
Corn (Zea mays); 62 g ai/ha
  Plant response rating, Corn: 55
Corn (Zea mays); 125 g ai/ha
  Plant response rating, Corn: 65
Corn (Zea mays); 250 g ai/ha
  Plant response rating, Corn: 85
[4]; [18]
  Plant response rating (scale of 0 to 100), Crabgrass, Large: 95
[4]; 62 g ai/ha
  Plant response rating, Crabgrass, Large: 95
[4]; 125 g ai/ha
  Plant response rating, Crabgrass, Large: 95
[4]; 250 g ai/ha
  Plant response rating, Crabgrass, Large: 98
[5]; [18]
  Plant response rating (scale of 0 to 100), Foxtail, Giant: 95
[5]; 62 g ai/ha
  Plant response rating, Foxtail, Giant: 95
[5]; 125 g ai/ha
  Plant response rating, Foxtail, Giant: 95
[5]; 250 g ai/ha
  Plant response rating, Foxtail, Giant: 98
[6]; [18]
  Plant response rating (scale of 0 to 100), Johnsongrass: 75
[6]; 62 g ai/ha
  Plant response rating, Johnsongrass: 85
[6]; 125 g ai/ha
  Plant response rating, Johnsongrass: 90
[6]; 250 g ai/ha
  Plant response rating, Johnsongrass: 90
[7]; [18]
  Plant response rating (scale of 0 to 100), Lambsquarters: 25
[7]; 62 g ai/ha
  Plant response rating, Lambsquarters: 60
[7]; 125 g ai/ha
  Plant response rating, Lambsquarters: 50
[7]; 250 g ai/ha
  Plant response rating, Lambsquarters: 75
[8]; [18]
  Plant response rating (scale of 0 to 100), Morningglory: 40
[8]; 62 g ai/ha
  Plant response rating, Morningglory: 40
[8]; 125 g ai/ha
  Plant response rating, Morningglory: 55
[8]; 250 g ai/ha
  Plant response rating, Morningglory: 50
[9]; [18]
  Plant response rating (scale of 0 to 100), Nutsedge, Yellow: 0
[9]; 62 g ai/ha
  Plant response rating, Nutsedge, Yellow: 0
[9]; 125 g ai/ha
  Plant response rating, Nutsedge, Yellow: 10
[9]; 250 g ai/ha
  Plant response rating, Nutsedge, Yellow: 20
[10]; [18]
  Plant response rating (scale of 0 to 100), Oilseed Rape: 15
[10]; 62 g ai/ha
  Plant response rating, Oilseed Rape: 70
[10]; 125 g ai/ha
  Plant response rating, Oilseed Rape: 90
[10]; 250 g ai/ha
  Plant response rating, Oilseed Rape: 90
[11]; [18]
  Plant response rating (scale of 0 to 100), Pigweed: 70
[11]; 62 g ai/ha
  Plant response rating, Pigweed: 80
[11]; 125 g ai/ha
  Plant response rating, Pigweed: 85
[11]; 250 g ai/ha
  Plant response rating, Pigweed: 90
[12]; [18]
  Plant response rating (scale of 0 to 100), Ragweed: 25
[12]; 62 g ai/ha
  Plant response rating, Ragweed: 25
[12]; 125 g ai/ha
  Plant response rating, Ragweed: 40
[12]; 250 g ai/ha
  Plant response rating, Ragweed: 65
[13]; [18]
  Plant response rating (scale of 0 to 100), Ryegrass, Italian: 10
[13]; 62 g ai/ha
  Plant response rating, Ryegrass, Italian: 25
[13]; 125 g ai/ha
  Plant response rating, Ryegrass, Italian: 75
[13]; 250 g ai/ha
  Plant response rating, Ryegrass, Italian: 95
[14]; [18]
  Plant response rating (scale of 0 to 100), Velvetleaf: 30
[14]; 62 g ai/ha
  Plant response rating, Velvetleaf: 40
[14]; 125 g ai/ha
  Plant response rating, Velvetleaf: 40
[14]; 250 g ai/ha
  Plant response rating, Velvetleaf: 70
[15]; [18]
  Plant response rating (scale of 0 to 100), Waterhemp: 70
[15]; 62 g ai/ha
  Plant response rating, Waterhemp: 75
[15]; 125 g ai/ha
  Plant response rating, Waterhemp: 85
[15]; 250 g ai/ha
  Plant response rating, Waterhemp: 90
[16]; [18]
  Plant response rating (scale of 0 to 100), Wheat: 25
[16]; 62 g ai/ha
  Plant response rating, Wheat: 45
[16]; 125 g ai/ha
  Plant response rating, Wheat: 65
[16]; 250 g ai/ha
  Plant response rating, Wheat: 70
[17]; 31 g ai/ha
  Plant response rating (scale of 0 to 100), Ducksalad: 0
[17]; 62 g ai/ha
  Plant response rating (scale of 0 to 100), Ducksalad: 60
[17]; 125 g ai/ha
  Plant response rating (scale of 0 to 100), Ducksalad: 75
[17]; 250 g ai/ha
  Plant response rating (scale of 0 to 100), Ducksalad: 100
Rice (Oryza sativa); 31 g ai/ha
  Plant response rating (scale of 0 to 100), Rice: 0
Rice (Oryza sativa); 62 g ai/ha
  Plant response rating (scale of 0 to 100), Rice: 0
Rice (Oryza sativa); 125 g ai/ha
  Plant response rating (scale of 0 to 100), Rice: 10
Rice (Oryza sativa); 250 g ai/ha
  Plant response rating (scale of 0 to 100), Rice: 20
